Earlier results, collected in patent publication US20200222348A1, “BIMODAL MODIFIED RELEASE COMPOSITIONS FOR CANCER TREATMENT” (MUSLI THYROPEUTICS LTD., priority 2017, published 2020).

Details: stated as general knowledge

biological half-life (T3, short biological half-life): 48-60 hours
Tmax in serum (T3 in serum): about 4 hrs
Compound: N[C@@H](Cc1cc(I)c(Oc2ccc(O)c(I)c2)c(I)c1)C(=O)O [Example T3, triiodothyronine]
